Assay results: patent US20130245047A1, “COMPOSITIONS FOR TREATING CANCER-RELATED FATIGUE AND METHODS OF SCREENING THEREOF” (TENERA THERAPEUTICS, LLC, priority 2011, published 2013)

Legend:
BALB/c mice = test: etoposide-induced fatigue model (CTRF animal model), activity, weight and blood chemistry; format: in vivo
Description: An animal model has been developed to screen for drugs which are efficacious in the treatment, alleviation and/or prevention of chronic fatigue syndrome, such as cancer treatment-related fatigue (“CTRF”). […] The animal's overall activity is measured using a running wheel or other method. In addition, the animal's day and night activity profiles are measured to determine when disrupted sleep architecture is present. This is characterized by disruption of the REM sleep as well as fatigue and cognitive dysfunction. The animal's percent daily weight change is also determined. The levels of cytokines such as IL-6 can be measured, since these are typically elevated with chemotherapy treatment. Results can be provided as percent change of total activity, percent change relative to light exposure, percent weight change over a defined time period (day, week), and combinations thereof.
The model can be created using any one of a number of different drugs, alone or in combination with additional therapy, such as one or more other chemotherapeutics or radiation. The in vitro and in vivo models described above can be used to identify compounds that effectively treat CTRF. In one embodiment, etoposide is administered in a dosage of 50 to 60 mg/kg to cause CTRF. In this study etoposide was administered by a single intraperitoneal injection on the first day of the study.
(§1) For the etoposide-induced fatigue model (FIGS. 2-7), BALB/c mice (obtained and housed as described above) were divided into groups of 10 animals per group: 1. control (untreated) mice, 2. mice treated with a single intraperitoneal dose of 60 mg/kg etoposide on day 1, and 3. mice treated with a single intraperitoneal dose of 60 mg/kg etoposide on day 1, followed by daily oral doses of pentoxifylline administered as a 1 mg/kg dose in the drinking water throughout the study. The animals were then assessed for their level of activity relative to time of day (day and night); total locomotor activity; blood chemistry (hemoglobin, red blood cells, white blood cells); over time in weeks.

IL-6 = IL-6 levels in etoposide-treated animals; format: in vivo, mice; conditions: increasing etoposide dosing (0, 50 or 60 mg/kg); FIG. 3
Description: An animal model has been developed to screen for drugs which are efficacious in the treatment, alleviation and/or prevention of chronic fatigue syndrome, such as cancer treatment-related fatigue (“CTRF”). […] The animal's overall activity is measured using a running wheel or other method. In addition, the animal's day and night activity profiles are measured to determine when disrupted sleep architecture is present. This is characterized by disruption of the REM sleep as well as fatigue and cognitive dysfunction. The animal's percent daily weight change is also determined. The levels of cytokines such as IL-6 can be measured, since these are typically elevated with chemotherapy treatment. […]
as §1, with “[…], […],” for “2. mice treated with a single intraperitoneal dose of 60 mg/kg etoposide on day 1, and 3. mice treated with a single intraperitoneal dose of 60 mg/kg etoposide on day 1,”

female BALB/c mice = test: LPS-induced fatigue model, daily activity counts; format: in vivo; conditions: single intraperitoneal dose of 2.5 mg/kg lipopolysaccharide vs saline control; FIG. 1
Description: For the LPS-induced fatigue model shown in FIG. 1, […], female BALB/c mice were obtained from Charles River Laboratories (Wilmington, Mass.). The mice were randomized into 2 groups of 10 prior to treatment. Animals were housed 5 per cage in micro-isolators and allowed to acclimatize for 4 days prior to dosing. Animal were given food and water ad libitum with a 12 hour light/12 hour dark schedule.
Animals in the control group were initially injected intraperitoneally with saline. Animals in the LPS group were injected intraperitoneally with a single dose of 2.5 mg/kg lipopolysaccharide on dayl.

[1] = etoposide, over time in days, FIG. 5

What does the source list for CC(=O)CCCCn1c(=O)c2c(ncn2C)n(C)c1=O [Pentoxifylline]?
total locomotor activity (BALB/c mice; animals treated with 60 mg etoposide/kg, then daily oral pentoxifylline 1 mg/kg in drinking water, FIG. 6): improves activity; 12 hour dark activity over time (weeks) (BALB/c mice; etoposide treated followed by pentoxifylline 1 mg/kg daily oral vs etoposide treated and untreated control, FIG. 7A): significantly increase nocturnal activity; 12 hour light activity over time (weeks) (BALB/c mice; etoposide treated followed by pentoxifylline 1 mg/kg daily oral vs etoposide treated and untreated control, FIG. 7B): decrease activity when animals should be sleeping

For COc1cc([C@@H]2c3cc4c(cc3[C@@H](O[C@@H]3O[C@@H]5CO[C@@H](C)O[C@H]5[C@H](O)[C@H]3O)[C@H]3COC(=O)[C@H]23)OCO4)cc(OC)c1O [etoposide], which “total locomotor activity over time (weeks)” value (BALB/c mice; 60 mg etoposide/kg single intraperitoneal dose, FIG. 2) is on record?
The value was “decreased total activity over time of treatment”.

What about the “fatigue (percent of baseline) over time (weeks)” value (BALB/c mice; 60 mg etoposide/kg, 12 hour dark cycle or 12 hour light cycle, FIG. 4) of the same compound?
Its value is “decreased activity”.

And the “activity counts (shift of circadian rhythm)” value (BALB/c mice; [1])?
Its value is “decreased activity, which was more pronounced during the evening”.

What about the “percent daily weight change (shift of circadian rhythm)” value (BALB/c mice; [1]) of the same compound?
Its value is “weight loss”.

And the “dependence of the observed results on anemia (blood chemistry)” value (BALB/c mice; mice treated with etoposide)?
The value was “independent of anemia”.

What about the “levels of IL-6” value (IL-6) of the same compound?
Its value is “increased levels of IL-6”.

For lipopolysaccharide [LPS], which “total daily activity (counts/group) per day” value (female BALB/c mice) is on record?
The value was “decreased activity indicative of fatigue”.
